“And” between values parts separate entries of the source, which are not always exact repeats. Equal entries are not always repeated. Where two headings read alike, the source gives them in different places.
What was measured:
[1] = Plasma pharmacokinetics by HPLC-ECD after IV dose in rhesus monkeys
Experimental: These doses were chosen as the minimal effective doses (from previous model development and validation studies, unpublished data) and blood was collected for pharmacokinetic analysis. After a week wash-out and recovery period, P. coatneyi (1 mL of >50,000 parasitized RBCs per microlitre or 5 × 10^6 RBC with a 1 % parasitaemia) were inoculated from a donor monkey into all the monkeys. The treatment was initiated at day 6 after inoculation at a parasitaemia ≥3 % or >200,000 parasites μL^−1 when the cohort of animals was minimally symptomatic. Drugs were given for 3 days with a loading dose initially followed by ½ of the first dose on the 2nd and 3rd days.
Blood was collected for pharmacokinetic/pharmacodynamics (PK/PD) analysis after the first dose only due to rapid clearance of artemisinin derivatives. Heparinized blood was collected at 0, 5, 20, 40 min, 1, 3, and 6 h post-dose and plasma samples were separated within 2 h by centrifugation (1500g, 10 min). Aliquots of samples were made for simultaneous measurement by HPLC [16] and bioassay [14], and stored at −80 °C until analysis. All glassware was silanized before use with a 0.5 % aqueous solution (v/v) of Pierce Aquasil (Rockford, IL, USA) according to the manufacturer’s recommended procedure. Solid-phase extraction was performed on C-18 elution cartridge (3.0 ml, J.T. Baker Co.) using a VAC ELUTE SPS24 sample processing station (Analytichem International, Harbour City, CA, USA). The cartridge was preconditioned by sequential washing with 2.5 ml acetonitrile, 2.5 ml methanol and 2.5 ml water. One ml of distilled water was added to the cartridge before adding plasma sample (0.5 ml). Then, the cartridge was washed with 2.5 ml distilled water, 2.5 ml of 0.05 % H3PO4 (pH 4.5) and 2.5 ml of 20 % acetonitrile and completely dried by closing the vacuum for 15 min. The analytes were collected by eluting with 0.5 ml methanol three times and then with 0.5 ml 90:10 n-butyl chloride: ethyl acetate twice. The organic phases were pooled. The combined organic phases were then evaporated to dryness under a stream of nitrogen at room temperature. Extraction residues were reconstituted with 50:50 ethanol: water (0.3 ml), at least 16 h before injection. The injection volume was 100 µl for all samples.
The plasma concentration of parent drugs, AL and AS, and their primary metabolites, DHA and 2-hydroxyartelinate (OHAL) respectively, were measured by HPLC with electrochemical detection in reductive mode (HPLC-ECD) [16], which was the only method for artemisinin compounds then (Additional files 1 and 2).
HPLC with reductive electrochemical detection was performed using a model BAS 200B liquid chromatography (Bioanalytical Systems, Inc., West Lafayette, Indiana, USA). A Nova-Pak® C18 (3.9 × 150 mm, Waters Corporation, Milford, MA, USA) was used with 40 % acetonitrile in sodium acetate buffer (pH 3.6) as mobile phase. Detection was performed using a thin dual-layer glassy carbon electrode run in parallel mode at a potential of −1.0 V versus Ag/AgCl. The system was operated at the following temperatures: mobile phase 35 °C, column and detector oven 30 °C, cell 31 °C with the flow rate of 1.5 mL min^−1. Artemisinin (ART) was used as an internal standard. Samples were injected via Gilson model 231 XL sampling injector equipped with a 100 µL loop, a Gilson model 401 dilutor/pipettor, a sampler controller keypad (Gilson Medical Electronics, Middleton, WI, USA), and a Valco electrically actuated switching valve (Valco Instrument Co. Inc) was used. This system automatically deoxygenated and injected sample, which permits the high sample throughput associated with automated injection. Data were acquired and analysed using a Millennium^32 Chromatography Manager (Waters Corporation, Milford, MA, USA).

[2] = Deaths and tolerability in P. coatneyi-infected rhesus monkeys; type: in vivo, rhesus macaques (Macaca mulatta); settings: for Deaths: infected rhesus, IV AL 11.8 mg kg^−1
[3] = parameters: method as in PMID 16860356, PMID 16126619; settings: rats; cited from earlier work
Plasmodium coatneyi = assay: In vivo pharmacodynamics (parasite clearance) in uncomplicated P. coatneyi-infected splenectomized rhesus monkey model
Experimental: Twenty-two adult colony-born, Indian-origin rhesus macaques (Macaca mulatta) naïve monkeys were splenectomized and recovered well more than 1 month prior to entering the study. […] Twenty-two animals were randomized to two experiments of 11 monkeys. […] The control monkeys received intramuscular quinine treatment and the experimental animals received intravenous artemisinin candidates.
Based on our previous model validation, blood smears were performed to detect malaria parasites starting prior to inoculation on day 0 and continued daily (0700–0800 h). The monkeys were physically restrained in the squeeze cage restraint apparatus and approximately 0.1–0.2 ml whole blood was collected from each monkey by lancet puncture of the lateral auricular vein. Thick and thin smears were made on the same microscope glass slide and subsequently fixed in methanol and stained with Giemsa. When the smears were positive, white blood cell count (WBC) and/or red blood cell count (RBC) were also performed using automated haematology analyzer Sysmex K800 to calculate parasite density. Haematocrits were checked as needed. At study days 6–12, additional blood samples were obtained from all animals in the afternoon (1500–1600 h) to monitor parasitaemia levels. Daily blood smears were continued until two consecutive days with negative smears. Then the smear monitoring schedule was reduced to two times weekly for 2 weeks and then weekly for 6 weeks after completion of the last treatment.
Blood smear staining and parasitaemia determination took about 2 h. […] The control monkey received quinine treatment and the ten experimental animals received intravenous artemisinin derivative candidate.
After a week wash-out and recovery period, P. coatneyi (1 mL of >50,000 parasitized RBCs per microlitre or 5 × 10^6 RBC with a 1 % parasitaemia) were inoculated from a donor monkey into all the monkeys. The treatment was initiated at day 6 after inoculation at a parasitaemia ≥3 % or >200,000 parasites μL^−1 when the cohort of animals was minimally symptomatic. Drugs were given for 3 days with a loading dose initially followed by ½ of the first dose on the 2nd and 3rd days.
Blood smear were collected once daily in the morning. Once positive parasitaemia was observed and reached 2000 parasites μL^−1, blood smears were collected twice, in the morning and afternoon. Blood for slides preparation were collected from ear for thick and thin smear preparation. Blood films on glass slides were air dried, fixed with 100 % methanol, stained with Giemsa, and read under ×100 magnification oil emersion for parasite determination.
First, a thick smear was performed for parasite detection by reading the slides at least 50 fields under ×100 magnification oil emersion.

P. falciparum clone (W2) = assay: Ex vivo Plasmodium falciparum-based bioassay (BA) of rhesus plasma, effect kinetics (ePD) as DHA equivalents; type: cell-based; settings: for Bioactivity %AUC20 / Bioactivity Cl: mean
Experimental: Blood was collected for pharmacokinetic/pharmacodynamics (PK/PD) analysis after the first dose only due to rapid clearance of artemisinin derivatives. Heparinized blood was collected at 0, 5, 20, 40 min, 1, 3, and 6 h post-dose and plasma samples were separated within 2 h by centrifugation (1500g, 10 min). Aliquots of samples were made for simultaneous measurement by HPLC [16] and bioassay [14], and stored at −80 °C until analysis.
The plasma anti-malarial activities of the artemisinin derivatives were measured using a previously published method [14]. […] After centrifugation, the supernatant (100 µL) was transferred to a 96-well flat bottom plate. Twofold serial dilutions were then made using heat inactivated pooled control serum (human:rhesus = 1:1). A suspension of malaria (W2 clone) infected erythrocytes was added to each well. The microtitre plate was placed into a gas-tight plexiglass chamber, flushed with a gas mixture of 90 % CO2, 5 % O2, and 5 % N2, and placed into an incubator (37 °C). Following 24 h incubation, the plate was removed from the chamber and pulsed with [^3H]-hypoxanthine solution to each well and incubated for another 18–20 h before harvesting. The incorporation of [^3H]-hypoxanthine by the parasites in each well was determined by counting in a scintillation counter.
A dose–response curve for each plasma sample was constructed by plotting [^3H]-hypoxanthine uptake on the Y-axis against the corresponding dilution factor on the X-axis after logarithmic transformation. The dilution factor value that inhibits parasite growth by 50 % (DF50) of each plasma sample was determined.

[4] = DHA equivalents, infected rhesus

## CC1CCC2C(C)C(OCc3ccc(C(=O)O)cc3)OC3OC4(C)CCC1C32OO4.CC1CCC2C(C)C(OCc3ccc(C(=O)O)cc3)OC3OC4(C)CCC1C32OO4.O (stereo not drawn) [IV AL, 4-(10′ dihyro-artemisinin-oxymethyl) benzoic acid hemihydrate]
[1]; 0.08 h, healthy rhesus, after IV AL 11.8 or AS 8.0 mg/kg
  Plasma concentration, mean: 61.58 µM
[1]; 0.08 h, infected rhesus, after IV AL 11.8 or AS 8.0 mg/kg
  Plasma concentration, mean: 62.96 µM
[1]; 0.33 h, healthy rhesus
  Plasma concentration, mean: 43.27 µM
[1]; 0.33 h, infected rhesus
  Plasma concentration, mean: 46.68 µM
[1]; 0.67 h, healthy rhesus
  Plasma concentration, mean: 26.12 µM
[1]; 0.67 h, infected rhesus
  Plasma concentration, mean: 26.79 µM
[1]; 1.0 h, healthy rhesus
  Plasma concentration, mean: 16.73 µM
[1]; 1.0 h, infected rhesus
  Plasma concentration, mean: 21.04 µM
[1]; 3.0 h, healthy rhesus
  Plasma concentration, mean: 0.68 µM
[1]; 3.0 h, infected rhesus
  Plasma concentration, mean: 1.24 µM
[1]; 6.0 h, healthy rhesus
  Plasma concentration, mean: 0 µM
[1]; 6.0 h, infected rhesus
  Plasma concentration, mean: 0.05 µM
[1]; healthy or infected monkeys
  DHA in plasma after IV AL: no DHA was found in plasma
[1]; infected rhesus
  AUC0–20, parent drug: 925 µM·min
  AUC0–∞, parent drug: 3706 µM·min
[1]; mean, P. coatneyi infected rhesus, IV AL/Lys 11.8 or AS/Na 8 mg/kg, analyte = label
  Cmax: 61.5 µM
[1]; mean, healthy rhesus
  %AUC20: 33.4%
  AUC 0-20: 940 µmol·min/L
  AUC(0-inf): 3,039 µmole min L^-1
  Cl: 0.45 L hr^-1 kg ^-1
  Vz: 0.26 L kg ^-1
  t 1/2, z: 25.3 min
[1]; mean, healthy rhesus, IV AL/Lys 11.8 or AS/Na 8 mg/kg
  Cmax: 61.6 µM
[1]; mean, infected rhesus
  %AUC20: 31.5%
  AUC 0-20: 954 µmol·min/L
  AUC(0-inf): 3,392 µmole min L^-1
  Cl: 0.43 L hr^-1 kg ^-1
  Vz: 0.28 L kg ^-1
  t 1/2, z: 29.6 min
[1]; median, infected rhesus
  Vz, parent: 0.259 L/kg
[1]; parent drug, infected rhesus
  % AUC0–20 / AUC0–∞: 24.6%
[1]; read-out: Cmax, parent drug, infected rhesus
  Cmax: 60.2 µM
[2]
  Deaths: two deaths in the infected animals within 2.5 h
[2]; listed as AL
  Deaths: two died following AL regimen before parasite clearance
[2]; other animals in the experiment
  Tolerability: well tolerated by the other animals
[3]
  toxicity: more toxic than AS
Plasmodium coatneyi; 0.29 day post-dose
  Parasite/µL, mean: 704,770 Parasite/µL
Plasmodium coatneyi; 0.29 day post-dose, IV AL experiment (mean; IM QN = its control monkey)
  Parasite Reduction: 20.4%
Plasmodium coatneyi; 1.00 day post-dose
  Parasite/µL, mean: 124,294 Parasite/µL
Plasmodium coatneyi; 1.00 day post-dose, IV AL experiment
  Parasite Reduction: 82.2%
Plasmodium coatneyi; 1.29 day post-dose
  Parasite/µL, mean: 32,703 Parasite/µL
Plasmodium coatneyi; 1.29 day post-dose, IV AL experiment
  Parasite Reduction: 95.2%
Plasmodium coatneyi; 2.00 day post-dose
  Parasite/µL, mean: 6,978 Parasite/µL
Plasmodium coatneyi; 2.00 day post-dose, IV AL experiment
  Parasite Reduction: 98.9%
Plasmodium coatneyi; 2.29 day post-dose
  Parasite/µL, mean: 3,976 Parasite/µL
Plasmodium coatneyi; 2.29 day post-dose, IV AL experiment
  Parasite Reduction: 99.4%
Plasmodium coatneyi; 3.00 day post-dose
  Parasite/µL, mean: 895 Parasite/µL
Plasmodium coatneyi; 3.00 day post-dose, IV AL experiment
  Parasite Reduction: 99.9%
Plasmodium coatneyi; 3.29 day post-dose
  Parasite/µL, mean: 377 Parasite/µL
Plasmodium coatneyi; 3.29 day post-dose, IV AL experiment
  Parasite Reduction: 99.9%
Plasmodium coatneyi; 4.00 day post-dose
  Parasite/µL, mean: 568 Parasite/µL
Plasmodium coatneyi; 4.00 day post-dose, IV AL experiment
  Parasite Reduction: 99.9%
Plasmodium coatneyi; 4.29 day post-dose
  Parasite/µL, mean: 8,704 Parasite/µL
Plasmodium coatneyi; 4.29 day post-dose, IV AL experiment
  Parasite Reduction: 98.5%
Plasmodium coatneyi; 5.00 day post-dose
  Parasite/µL, mean: 2,880 Parasite/µL
Plasmodium coatneyi; 5.00 day post-dose, IV AL experiment
  Parasite Reduction: 99.5%
Plasmodium coatneyi; 5.29 day post-dose
  Parasite/µL, mean: 1,141 Parasite/µL
Plasmodium coatneyi; 5.29 day post-dose, IV AL experiment
  Parasite Reduction: 99.8%
Plasmodium coatneyi; 6.00 day post-dose
  Parasite/µL, mean: 18,619 Parasite/µL
Plasmodium coatneyi; 6.00 day post-dose, IV AL experiment
  Parasite Reduction: 96.8%
Plasmodium coatneyi; 6.29 day post-dose
  Parasite/µL, mean: 92,458 Parasite/µL
Plasmodium coatneyi; 6.29 day post-dose, IV AL experiment
  Parasite Reduction: 84.4%
Plasmodium coatneyi; 7.00 day post-dose
  Parasite/µL, mean: 51,036 Parasite/µL
Plasmodium coatneyi; 7.00 day post-dose, IV AL experiment
  Parasite Reduction: 91.4%
Plasmodium coatneyi; IV AL: the only two determinable, IV AS: the two most rapid
  PCT of individual animals: 5.3 days and 4.0 days
Plasmodium coatneyi; in vivo
  Recrudescence, median (range, n): 6.5 (6–7, 2) days
Plasmodium coatneyi; n 2 IV AL, n 10 IV AS
  R, Day (recrudescence day), mean: 6.50 days
Plasmodium coatneyi; parasite counts never reached zero
  Treatment failure: Six animals failed treatment
Plasmodium coatneyi; range in evaluable animals (4 of 8 IV AL, 3 of 10 IV AS)
  PC50: 2.72 to 10.9 h
P. falciparum clone (W2); 0.08 h, healthy rhesus
  Antimalarial activity expressed as DHA equi., mean: 5.69 µmol/L
P. falciparum clone (W2); 0.08 h, infected rhesus
  Antimalarial activity expressed as DHA equi., mean: 7.58 µmol/L
P. falciparum clone (W2); 0.33 h, healthy rhesus
  Antimalarial activity expressed as DHA equi., mean: 4.09 µmol/L
P. falciparum clone (W2); 0.33 h, infected rhesus
  Antimalarial activity expressed as DHA equi., mean: 5.32 µmol/L
P. falciparum clone (W2); 0.67 h, healthy rhesus
  Antimalarial activity expressed as DHA equi., mean: 2.56 µmol/L
P. falciparum clone (W2); 0.67 h, infected rhesus
  Antimalarial activity expressed as DHA equi., mean: 3.58 µmol/L
P. falciparum clone (W2); 1.0 h, healthy rhesus
  Antimalarial activity expressed as DHA equi., mean: 1.75 µmol/L
P. falciparum clone (W2); 1.0 h, infected rhesus
  Antimalarial activity expressed as DHA equi., mean: 2.58 µmol/L
P. falciparum clone (W2); 3.0 h, healthy rhesus
  Antimalarial activity expressed as DHA equi., mean: 0.07 µmol/L
P. falciparum clone (W2); 3.0 h, infected rhesus
  Antimalarial activity expressed as DHA equi., mean: 0.19 µmol/L
P. falciparum clone (W2); 6.0 h, healthy rhesus
  Antimalarial activity expressed as DHA equi., mean: 0 µmol/L
P. falciparum clone (W2); 6.0 h, infected rhesus
  Antimalarial activity expressed as DHA equi., mean: 0 µmol/L
P. falciparum clone (W2); [4]
  AUC0–20, ePD: 115 µM·min
  AUC0–∞, ePD: 426 µM·min
P. falciparum clone (W2); healthy rhesus
  Bioactivity %AUC20: 31.7%
  Bioactivity Cl: 4.75 L hr^-1 kg ^-1
P. falciparum clone (W2); infected rhesus
  Bioactivity %AUC20: 27.7%
  Bioactivity Cl: 3.08 L hr^-1 kg ^-1
